15 molecules from patent US9284350B2, “IAP BIR domain binding compounds” (Pharmascience Inc., priority 2010, dated 2016) can be followed below.

Molecules are shown by their SMILES. pEC50, pKi: −log10 of the molar value.

Usually pKi stands for the negative decadic logarithm of the Ki, by convention in mol/L. The term pEC50 denotes the EC50 on a negative log10 scale, so that one unit is a factor of ten.

Experiment [1] concerns the target T1, XIAP (Homo sapiens, UniProt P98170).
T1 construct: fused on or other part: GST tag at the N-terminus (pGEX4T vectors)
As to the kind of experiment: Fluorescence polarization-based competition assay, XIAP. In kind it is binding. Particulars: FP assay, ki derived from IC50. The procedure: (§1) Binding of compounds of Formula 1 to target BIR domains was measured using a fluorescence-polarization (FP) assay. Fluorescence-polarization was evaluated using a GENios microplate reader (TECAN) Pro instrument with the excitation filter set at 485 nm and the emission filter set at 535 nm. The final amount of protein used in the assay corresponds to the amount of protein necessary to obtain 80% of the maximum FP value in a P1 or P2 fluorescent (FITC) probe saturation experiment. The compounds potency (IC50) and selectivity, was assessed in the presence of the amount of target protein established, fluorescent probe, and a 10 point serial dilution in assay buffer (50 mM Hepes, pH 7.5, 250 mcg/mL γ-globulin, 2 mM DTT, 1% DMSO) of the selected compounds.
(§2) Assays were carried out in duplicate using untreated black 96-well plates (Corning #3915) and a total volume of 100 microliters, containing 25 microliters of fluorescent probe at a final concentration of 2 nM in assay buffer, 25 microliters of diluted compound, 25 microliters of BIR protein into assay buffer and 25 microliters of assay buffer. Buffer only (blank) or probe only in buffer (G-factor) were used as controls for calibration. The plate was incubated at room temperature in the dark for one hour and FP values in millipolarization units (mP) were recorded using Genios Pro FP reader.
(§3) The measured FP values (mP) were then plotted against compound concentration, and IC50 values were calculated based on a sigmoidal dose-response (variable-slope) curve fit using GraphPad Prism version 4.02 for Windows, GraphPad Software, San Diego Calif. USA and/or CambridgeSoft BioAssay Enterprise Version 10.1. The IC50 value is the concentration of test compound at which 50% of the tracer was displaced. ki values were derived from the calculated IC50 values as described above and according to the equation described in Nikolovska-Coleska, Z. (2004) Anal Biochem 332, 261-273. The results are presented in Table 2, wherein A=less than 25 nM; B=less than 250 nM; C=less than 1000 nM; and D=greater than 1000 nM.
Background: Fluorescence polarisation rises when a labelled molecule tumbles more slowly, as on binding a larger partner.

The target of experiment [2] is T2, c-IAP1 (Homo sapiens, UniProt Q13490).
T2 construct: GST (N); made in house; host or cells: E. coli DH5α
T2 sequence (Q13490 251-363): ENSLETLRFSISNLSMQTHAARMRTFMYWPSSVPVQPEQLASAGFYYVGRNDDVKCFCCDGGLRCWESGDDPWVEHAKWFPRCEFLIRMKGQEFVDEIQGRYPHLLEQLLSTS
As to the kind of experiment: Fluorescence polarization-based competition assay, c-IAP1. In kind it is binding. Particulars: FP assay, ki derived from IC50. As to the method: as §1, §2, §3

For experiment [3], the target named is T3, cIAP2 (Homo sapiens, UniProt Q13489).
T3 construct: GST (N); made in house; host or cells: E. coli DH5α
T3 sequence (Q13489 236-349): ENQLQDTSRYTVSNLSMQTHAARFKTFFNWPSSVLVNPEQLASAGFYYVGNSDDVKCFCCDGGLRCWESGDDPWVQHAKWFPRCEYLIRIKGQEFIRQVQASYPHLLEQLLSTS
In words: Fluorescence polarization-based competition assay, cIAP2. Type of experiment: binding. Particulars: FP assay, ki derived from IC50. The procedure: as §1, §2, §3

Experiment [4] has as its system Colorectal carcinoma HCT116 cells. As to the kind of experiment: Cell death assay (MTT) in combination with HGS ETR1. Type of experiment: cell-based. As to conditions: with HGS ETR1 30 ng/ml, 72 hours, read-out: HCT116+ mapatubimap EC50. The procedure:
Colorectal carcinoma HCT116 cells were cultured as monolayers in 96 well plates at a density of 2000 cells per well in McCoy's 5a medium (HyClone) supplemented with 2.2 g/L sodium bicarbonate, 10% FBS (HyClone) and 1% penicillin/streptomycin (HyClone). 24 hours later, triplicate wells were treated with HGS ETR1 (30 ng/ml) in combination with compound. Cells were incubated in the presence of compound and HGS agonistic Trail receptor antibody, ETR1 (Mapatumamab, 30 ng/ml) for 72 hours. Metabolic viability of remaining cells was assessed by MTT (thiazolyl blue tetrazolium bromide, Sigma) assay.
EC50 values (50% cell survival in the presence of compound as compared to untreated controls) were calculated from survival curves using BioAssay software (CambridgeSoft) and GraphPad Prism (Graph Pad Software Inc.). The results are provided in Table 3, below, wherein A=less than 50 nM; B=less than 250 nM; C=less than 1000 nM; and D=greater than 1000 nM.

T1 sequence (P98170 246-497 limits assumed): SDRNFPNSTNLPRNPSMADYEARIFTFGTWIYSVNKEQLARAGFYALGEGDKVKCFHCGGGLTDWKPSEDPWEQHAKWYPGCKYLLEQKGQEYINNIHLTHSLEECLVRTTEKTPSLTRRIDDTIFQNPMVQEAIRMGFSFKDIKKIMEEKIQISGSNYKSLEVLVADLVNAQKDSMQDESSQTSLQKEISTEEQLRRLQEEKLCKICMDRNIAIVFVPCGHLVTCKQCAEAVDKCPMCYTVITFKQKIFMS

Regarding `CN[C@@H](C)C(=O)N[C@H](C(=O)N1C[C@@H](Oc2ccc(F)cc2)C[C@H]1CN(CCc1ccc(F)cc1)C(=O)c1cn(-c2ccc(F)cc2)cn1)[C@@H](C)OC` [Compound 108], the figures for the pKi in experiment [1], in experiment [2] and in experiment [3] were over 6.60, over 7.60 and over 7.60, respectively. Moreover, in experiment [4], the negative logarithm of the EC50 (pEC50) is over 6.60.

Turning to `CN[C@@H](C)C(=O)N[C@H](C(=O)N1C[C@@H](NC(=O)Cc2ccccc2)C[C@H]1CN(CCc1ccc(F)cc1)C(=O)c1cn2cccnc2n1)C(C)(C)C` [Compound 56], the pKi was over 6.00 in experiment [1], over 7.60 in experiment [2] and over 7.60 in experiment [3]. The negative-log EC50 (pEC50) in experiment [4] is over 6.00.

For the molecule `CN[C@@H](C)C(=O)N[C@H](C(=O)N1CCC[C@H]1CN(CCc1ccc(F)cc1)C(=O)c1cn(-c2ccc(F)cc2)nn1)C(C)(C)C` [Compound 125], the figures for the negative-log Ki (pKi) in experiment [1], in experiment [2] and in experiment [3] were over 6.60, over 7.60 and over 7.60, respectively.

Take `CN[C@@H](C)C(=O)N[C@H](C(=O)N1CCC[C@H]1CN(CCc1ccccc1F)C(=O)c1cn2cccnc2n1)C(C)(C)C` [Compound 11]: the pKi was over 6.60 in experiment [1] and over 7.60 in experiment [2]. The negative logarithm of the EC50 (pEC50) in experiment [4] was over 6.60.

On to `CN[C@@H](C)C(=O)N[C@H](C(=O)N1CCC[C@H]1CN(CCc1ccccc1)C(=O)c1cn2cc(C)ccc2n1)C(C)(C)C` [Compound 30], for which the pKi in experiment [1] is over 6.60; in experiment [2], over 7.60. Moreover, the negative-log EC50 (pEC50) in experiment [4] was over 6.60.

On to `CN[C@@H](C)C(=O)N[C@H](C(=O)N1CCC[C@H]1CN(CCc1ccccc1)C(=O)c1cn2ccncc2n1)C(C)(C)C` [Compound 35], for which the pKi in experiment [1] and in experiment [2] was over 7.60 in each case. Moreover, the negative logarithm of the EC50 (pEC50) in experiment [4] was over 6.60.

For `CN[C@@H](C)C(=O)N[C@H](C(=O)N1CCC[C@H]1CN(CCc1ccc(F)cc1)C(=O)c1cn2ccccc2n1)C1CCOCC1` [Compound 19], the pKi in experiment [1] is over 6.60; in experiment [2], over 7.60. The pEC50 in experiment [4] is over 7.30.

With `CN[C@@H](C)C(=O)N[C@H](C(=O)N1CCC[C@H]1CN(CCc1ccc(F)cc1)C(=O)c1cn(-c2ccc(OC)cc2)cn1)C(C)(C)C` [Compound 52], the pKi is over 6.60 in experiment [1] and over 7.60 in experiment [2]. In experiment [4], the pEC50 was over 6.60.

On to `CN[C@@H](C)C(=O)N[C@H](C(=O)N1CCC[C@H]1CN(CCc1ccc(F)cc1)C(=O)c1nnn(-c2ccc(F)cc2)n1)C(C)(C)C` [Compound 126], for which the pKi was over 6.60 in experiment [1], over 7.60 in experiment [2] and over 7.60 in experiment [3].

For the molecule `CC[C@H](NC)C(=O)N[C@H](C(=O)N1CCC[C@H]1CN(CCc1ccccc1)C(=O)c1cn2cccnc2n1)C1CCCCC1` [Compound 1], the negative-log Ki (pKi) in experiment [1] was over 6.00; in experiment [2], over 7.60. Besides, in experiment [4], the pEC50 was over 6.60.

For the molecule `CN[C@@H](C)C(=O)N[C@H](C(=O)N1CCC[C@H]1CN(CCc1ccc(F)cc1)C(=O)c1cn2cc(-c3ccccc3)ccc2n1)C(C)(C)C` [Compound 48], the pKi in experiment [1] is over 6.60; in experiment [2], over 7.60. In addition, the pEC50 in experiment [4] is over 7.30.

Regarding `CN[C@@H](C)C(=O)N[C@H](C(=O)N1CCC[C@H]1CN(CCc1ccccc1)C(=O)c1c[nH]c2ccccc12)C(C)(C)C` [Compound 24], the pKi in experiment [1] is over 6.60; in experiment [2] it was over 7.60. For the same molecule, in experiment [4], the negative-log EC50 (pEC50) was over 6.60.

On to `CN[C@@H](C)C(=O)N[C@H](C(=O)N1CCC[C@H]1CN(CCc1ccccc1)C(=O)c1cn2ccc(C)cc2n1)C(C)(C)C` [Compound 31], for which the pKi in experiment [1] is over 6.60; in experiment [2], over 7.60. For the same molecule, the negative-log EC50 (pEC50) in experiment [4] was over 6.60.

Regarding `CN[C@@H](C)C(=O)N[C@@H](COC)C(=O)N1CCC[C@H]1CN(CCc1ccc(F)cc1)C(=O)c1cn2ccccc2n1` [Compound 60], the pKi in experiment [1] is over 6.00; in experiment [2] it was over 7.60. Also, the pEC50 in experiment [4] is over 6.00.

`CN[C@@H](C)C(=O)N[C@H](C(=O)N1CCC[C@H]1CN(CCc1ccc(F)cc1)C(=O)c1cn2cc(N)ccc2n1)C(C)(C)C` [Compound 45]: the pKi in experiment [1] and in experiment [2] was over 7.60 throughout. For the same molecule, the negative-log EC50 (pEC50) in experiment [4] was over 7.30.
